Results on 21 compounds are retold here after ChEMBL document CHEMBL3286136, “Discovery of camphor-derived pyrazolones as 11β-hydroxysteroid dehydrogenase type 1 inhibitors” (Bioorg Med Chem Lett, 2014).

For orientation: IC50 means the midpoint of a concentration-inhibition curve. The term half-life denotes how long it takes for the measured level to halve. Broadly, the Cmax is the maximum level reached in the sampled fluid or tissue. As usually defined, the clearance is a measure of how efficiently the substance is removed, as volume per time. A higher clearance goes with efficient removal. Usually Tmax stands for the time at which the peak concentration occurs. In general, IC20 refers to the point of the concentration-response curve where the effect stands at 20%. Low values mean an effect from little substance, high ones a need for much substance.

The structures appear in SMILES notation. ≈ marks a conversion by molar mass, not a printed value.

The nature of series [1]: Effective permeability of the compound at pH 6.5 by PAMPA. In kind it is physicochemical. The conditions noted are these: read-out: Peff. Background: In PAMPA a lipid-coated filter parts donor from acceptor wells.
A short description of series [2]: Clearance in human liver microsomes at 1 uM. As to conditions: read-out: CLH. It is filed as ADME. In general terms: Microsomes from liver hold many membrane-bound enzymes, among them those of drug oxidation.
Series [3] addresses 11-beta-hydroxysteroid dehydrogenase 1 (Rattus norvegicus, UniProt P16232). Description: Inhibition of rat 11betaHSD1 assessed as reduction of cortisone to cortisol by ELISA.
The nature of series [4]: Half life in iv dosed rat. In kind it is ADME, organism-based. As to conditions: in vivo.
Series [5] in a line: Cmax in rat at 50 mg/kg, po. It is filed as ADME, organism-based. Also on record: dose 50 mg/kg, route oral. As to conditions: in vivo.
Series [6] in a line: Volume of distribution at steady state in iv dosed rat. The conditions noted are these: in vivo, read-out: Vdss. In kind it is ADME, organism-based.
Series [7] can be described thus: Kinetic aqueous solubility of the compound at pH 6.5. In kind it is physicochemical. The conditions noted are these: read-out: Kinetic_solubility.
Series [8] is described as follows: Clearance in iv dosed rat. In kind it is ADME, organism-based. As to conditions: in vivo.
A short description of series [9]: Tmax in po dosed rat. It is filed as ADME, organism-based. The conditions noted are these: in vivo.
Series [10] is described as follows: Oral bioavailability in rat. As to conditions: in vivo. It is filed as ADME, organism-based.
The nature of series [11]: Cmax in rat at 20 mg/kg, po. In kind it is ADME, organism-based. Also on record: dose 20 mg/kg, route oral. As to conditions: in vivo.
Series [12] deals with Cytochrome P450 3A4 (Homo sapiens, UniProt P08684). Description: Inhibition of CYP3A4 (unknown origin). In kind it is ADME.
Series [13] concerns Mus musculus. Description: Toxicity in db/db mouse assessed as sedative effect at 150 mg/kg, po after 13 days. Also on record: dose 150 mg/kg, route oral. The conditions noted are these: in vivo, 312 h. In kind it is organism-based.
Series [14] has as its target hERG (KCNH2) (Homo sapiens, UniProt Q12809). Put plainly: Inhibition of human ERG.
The subject of series [15] is Mus musculus. Description: Reduction in plasma cortisol level in db/db mouse at 150 mg/kg, po after 30 mins […] measured after 5.5 hrs relative to control. In kind it is functional.
Series [16] addresses 11-beta-hydroxysteroid dehydrogenase 1 (Homo sapiens, UniProt P28845). Put plainly: Inhibition of full-length human 11betaHSD1 expressed in HEK293 cells assessed as cortisol level by competitive ELISA. In kind it is cell-based. (In general: ELISA stands for enzyme-linked immunosorbent assay.)

Chain of 11-beta-hydroxysteroid dehydrogenase 1 (Rattus norvegicus, UniProt P16232) (P16232 whole entry): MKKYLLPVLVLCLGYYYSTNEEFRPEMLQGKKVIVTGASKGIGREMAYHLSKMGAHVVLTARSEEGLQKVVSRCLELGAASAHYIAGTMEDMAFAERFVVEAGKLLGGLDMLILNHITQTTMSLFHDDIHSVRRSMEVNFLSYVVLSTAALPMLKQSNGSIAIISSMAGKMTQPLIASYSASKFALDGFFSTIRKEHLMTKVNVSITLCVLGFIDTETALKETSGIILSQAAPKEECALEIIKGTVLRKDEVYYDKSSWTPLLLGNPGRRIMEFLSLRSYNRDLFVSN
Chain of Cytochrome P450 3A4 (P08684 whole entry): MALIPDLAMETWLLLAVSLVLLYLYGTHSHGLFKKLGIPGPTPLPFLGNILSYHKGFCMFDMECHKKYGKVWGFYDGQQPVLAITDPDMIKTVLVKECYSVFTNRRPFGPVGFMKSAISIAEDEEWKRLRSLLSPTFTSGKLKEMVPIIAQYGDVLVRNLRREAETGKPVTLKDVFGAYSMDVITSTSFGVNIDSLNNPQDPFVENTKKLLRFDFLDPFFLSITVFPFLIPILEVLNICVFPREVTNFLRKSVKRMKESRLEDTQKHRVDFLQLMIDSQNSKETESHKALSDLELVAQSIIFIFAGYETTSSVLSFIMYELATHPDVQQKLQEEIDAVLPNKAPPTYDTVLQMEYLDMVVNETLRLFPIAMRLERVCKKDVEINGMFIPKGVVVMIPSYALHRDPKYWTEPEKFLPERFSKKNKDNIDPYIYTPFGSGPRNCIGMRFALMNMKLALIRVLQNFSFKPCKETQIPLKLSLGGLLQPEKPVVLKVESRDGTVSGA
Chain of hERG (KCNH2) (Q12809 whole entry): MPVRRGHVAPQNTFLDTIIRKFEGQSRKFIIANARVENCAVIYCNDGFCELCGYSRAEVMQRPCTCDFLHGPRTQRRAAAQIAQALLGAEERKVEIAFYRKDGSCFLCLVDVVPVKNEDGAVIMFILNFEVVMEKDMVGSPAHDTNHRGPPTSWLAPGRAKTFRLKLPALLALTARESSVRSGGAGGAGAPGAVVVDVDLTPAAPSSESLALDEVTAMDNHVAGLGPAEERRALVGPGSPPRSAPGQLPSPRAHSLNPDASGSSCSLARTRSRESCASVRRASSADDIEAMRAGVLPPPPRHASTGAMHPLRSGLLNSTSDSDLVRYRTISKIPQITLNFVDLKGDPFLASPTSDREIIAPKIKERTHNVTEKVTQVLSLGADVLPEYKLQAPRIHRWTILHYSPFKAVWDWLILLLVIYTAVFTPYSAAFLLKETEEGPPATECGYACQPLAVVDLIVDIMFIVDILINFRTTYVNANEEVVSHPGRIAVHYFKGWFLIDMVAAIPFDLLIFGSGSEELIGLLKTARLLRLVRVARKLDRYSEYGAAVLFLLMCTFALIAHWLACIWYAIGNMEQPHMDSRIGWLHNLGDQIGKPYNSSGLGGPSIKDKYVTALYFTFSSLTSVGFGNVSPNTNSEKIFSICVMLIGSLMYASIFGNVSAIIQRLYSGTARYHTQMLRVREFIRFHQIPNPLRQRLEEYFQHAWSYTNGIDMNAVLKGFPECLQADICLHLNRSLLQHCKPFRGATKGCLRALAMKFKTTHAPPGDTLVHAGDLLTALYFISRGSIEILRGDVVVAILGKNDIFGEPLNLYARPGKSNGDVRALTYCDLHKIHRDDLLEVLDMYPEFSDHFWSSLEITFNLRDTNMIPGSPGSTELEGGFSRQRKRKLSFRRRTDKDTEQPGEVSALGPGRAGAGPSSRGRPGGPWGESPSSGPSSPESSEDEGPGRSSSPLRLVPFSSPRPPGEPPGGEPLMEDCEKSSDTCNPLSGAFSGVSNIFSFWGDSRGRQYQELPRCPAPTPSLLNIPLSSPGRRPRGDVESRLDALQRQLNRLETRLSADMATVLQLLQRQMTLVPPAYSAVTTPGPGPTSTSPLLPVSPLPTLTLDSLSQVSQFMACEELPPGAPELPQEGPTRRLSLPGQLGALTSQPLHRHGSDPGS
Chain of 11-beta-hydroxysteroid dehydrogenase 1 (Homo sapiens, UniProt P28845) (P28845 whole entry): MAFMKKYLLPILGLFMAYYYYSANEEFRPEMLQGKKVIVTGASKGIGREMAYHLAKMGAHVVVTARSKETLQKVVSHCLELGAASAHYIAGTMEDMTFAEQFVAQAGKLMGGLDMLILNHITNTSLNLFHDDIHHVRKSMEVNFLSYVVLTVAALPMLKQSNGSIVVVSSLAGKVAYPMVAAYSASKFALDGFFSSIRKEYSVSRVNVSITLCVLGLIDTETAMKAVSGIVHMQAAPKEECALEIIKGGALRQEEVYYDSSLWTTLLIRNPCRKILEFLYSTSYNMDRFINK

For the compound `CC1(C)[C@@H]2CC[C@@]1(C)c1c2c(=O)n(-c2ccccc2)n1Cc1ccccc1`, the Papp in series [1] is 8.8 ×10⁻⁶ cm/s. Also, in series [2], the microsomal CLint at 1 µM came out at 645 µL/min/mg. Also, in series [3], the IC50 worked out at 0.016 µM. This compound had a half-life in series [4] of 0.9 h. In series [5], this compound had a maximum concentration (Cmax) of 648 ng/mL. Besides, the Vd in series [6] was determined as 2.3 L/kg. For the same compound, the solubility kinetic in series [7] was determined as 171 µg/mL (≈ 477 µM). In series [8], this compound displayed a clearance of 57.5 mL/min/kg. Besides, the time of peak concentration (Tmax) in [9] amounted to 3.2 h. Further, in [10], the bioavailability worked out at 29%.
Take `CC1(C)[C@@H]2CC[C@@]1(C)c1c2c(=O)n(-c2ccccc2F)n1Cc1ccccc1`: the IC50 in series [3] came out at 0.012 µM.
For `Cn1c2c(c(=O)n1-c1ccccc1C(F)(F)F)[C@H]1CC[C@]2(C)C1(C)C`, in [1], the Papp was found to be 10.9 ×10⁻⁶ cm/s. Besides, the Cmax in [11] came to 2150 ng/mL. Moreover, the IC50 in [12] came to 22.6 µM; in series [3] it was 0.01 µM. For the same compound, the microsomal CLint at 1 µM in series [2] worked out at 68 µL/min/mg. The Activity result in [13] is recorded as “Toxic”. The half-life in [4] was 1 h. In addition, the IC20 in series [14] was over 30 µM. Moreover, the “inhibition (INH)” value in [15] worked out at 93%. Further, the Vd in series [6] stood at 1.2 L/kg. The solubility kinetic in series [7] was over 376 µg/mL. This compound also came in with a clearance in series [8] of 31.8 mL/min/kg. Besides, in [9], the time of peak concentration (Tmax) was 0.7 h. The bioavailability in [10] came out at 109%.
In the case of `CC1(C)[C@@H]2CC[C@@]1(C)c1c2c(=O)n(-c2ccc(F)cc2F)n1CCc1ccccc1`, in series [3], the concentration for half-maximal inhibition (IC50) came to 0.018 µM.
In the case of `Cn1c2c(c(=O)n1-c1cc(Cl)ccc1Cl)[C@H]1CC[C@]2(C)C1(C)C`, the Papp in [1] came out at 6.7 ×10⁻⁶ cm/s. Moreover, the half-maximal inhibitory concentration (IC50) in [12] was over 25 µM; in series [3], 0.005 µM. Besides, the microsomal CLint at 1 µM in [2] amounted to 170 µL/min/mg. Also, the Activity result in series [13] is “Non-toxic”. In series [4], this compound showed a half-life of 5.4 h. Moreover, the IC20 in [14] is 51 µM. The concentration in [5] peaked (Cmax) at 280 ng/mL. Besides, in series [15], the “inhibition (INH)” value worked out at 93%. Further, the Vd in series [6] worked out at 4.6 L/kg. Further, the solubility kinetic in series [7] was 50 µg/mL (≈ 142 µM). Also, the clearance in [8] was 40.2 mL/min/kg. Moreover, the time to peak (Tmax) in series [9] was determined as 0.5 h. The bioavailability in series [10] came to 71%.
On to `Cn1c2c(c(=O)n1Cc1ccccc1C(F)(F)F)[C@H]1CC[C@]2(C)C1(C)C`, for which the Papp in [1] is 8.2 ×10⁻⁶ cm/s. The IC50 came to 4.8 µM in [12] and 0.01 µM in series [3]. Moreover, the microsomal CLint at 1 µM in series [2] was found to be 604 µL/min/mg. In series [4], this compound gave a half-life of 3 h. Besides, the concentration in [5] peaked (Cmax) at 294 ng/mL. The Vd in [6] is 2 L/kg. In addition, in series [7], the solubility kinetic is 246 µg/mL (≈ 675 µM). Besides, in [8], the clearance was 34.8 mL/min/kg. Also, the time to peak (Tmax) in [9] came out at 0.8 h. Also, in series [10], the bioavailability is 5%.
For `COc1cccc(-n2c(=O)c3c(n2C)[C@]2(C)CC[C@H]3C2(C)C)c1`, the 50% inhibitory concentration (IC50) in series [3] came to 0.041 µM.
As for `C=CCn1c2c(c(=O)n1-c1ccccc1F)[C@H]1CC[C@]2(C)C1(C)C`, the IC50 in series [3] came to 0.035 µM.
Consider `CC1(C)[C@@H]2CC[C@@]1(C)c1c2c(=O)n(-c2ccc(F)cc2F)n1Cc1ccccc1`, for which the Papp in series [1] was determined as 11.2 ×10⁻⁶ cm/s. In addition, the half-inhibitory concentration (IC50) is 6.1 µM in series [12] and 0.013 µM in series [3]. In [2], the microsomal CLint at 1 µM was found to be 582 µL/min/mg. This compound showed a half-life in [4] of 0.8 h. In [14], this compound registered an IC20 of over 30 µM. In addition, in [5], the peak concentration (Cmax) amounted to 2280 ng/mL. Moreover, the “inhibition (INH)” value in series [15] is 93%. Besides, in series [6], the Vd is 1 L/kg. In addition, the solubility kinetic in series [7] is 82 µg/mL (≈ 208 µM). The compound also showed a clearance in [8] of 29 mL/min/kg. The time to peak (Tmax) in series [9] worked out at 2.3 h. Further, the bioavailability in series [10] came to 35%.
With `CC(C)n1c2c(c(=O)n1-c1ccccc1F)[C@H]1CC[C@]2(C)C1(C)C`, the IC50 in [3] stood at 0.022 µM.
For `CCn1c2c(c(=O)n1-c1ccccc1)[C@H]1CC[C@]2(C)C1(C)C`, the IC50 in [3] was 0.018 µM.
Still for that read-out and setting: in the case of `CCCn1c2c(c(=O)n1-c1ccccc1F)[C@H]1CC[C@]2(C)C1(C)C` it was 0.11 µM.
On to `Cn1c2c(c(=O)n1Cc1ccccc1)[C@H]1CC[C@]2(C)C1(C)C`, for which the half-inhibitory concentration (IC50) in series [3] came out at 0.077 µM.
`COc1c2c(nn1-c1ccc(C)cc1)[C@]1(C)CC[C@H]2C1(C)C`: the IC50 in series [3] is over 11 µM; in [16], over 22 µM.
As to `Cn1c2c(c(=O)n1-c1ccccn1)[C@H]1CC[C@]2(C)C1(C)C`, the half-maximal inhibitory concentration (IC50) in series [3] was over 5 µM.
Consider `Cn1c2c(c(=O)n1-c1ccccc1)[C@@H]1CC[C@@]2(C)C1(C)C`, for which the IC50 in series [3] was determined as 0.116 µM.
Take `Cc1ccccc1-c1cccc(Cn2c(=O)c3c(n2C)[C@]2(C)CC[C@H]3C2(C)C)c1`: in [3], the IC50 was found to be 0.021 µM.
`Cn1c2c(c(=O)n1-c1c(Cl)cccc1Cl)[C@H]1CC[C@]2(C)C1(C)C`: the IC50 is over 11 µM in [3] and over 22 µM in [16].
On to `Cn1c2c(c(=O)n1-c1cccc(I)c1)[C@H]1CC[C@]2(C)C1(C)C`, for which the half-maximal inhibitory concentration (IC50) in [3] came out at 0.004 µM.
With `Cn1c2c(c(=O)n1-c1ccccc1)[C@H]1CC[C@]2(C)C1(C)C`, the Papp in series [1] was 9.7 ×10⁻⁶ cm/s. In series [11], the Cmax is 335 ng/mL. Also, the IC50 is over 50 µM in series [12] and 0.138 µM in series [3]. For the same compound, in series [2], the microsomal CLint at 1 µM is 3.6 µL/min/mg. For the same compound, the half-life in [4] is 1.2 h. Besides, in series [6], the Vd stood at 1.4 L/kg. The solubility kinetic in series [7] worked out at 169 µg/mL (≈ 598 µM). This compound also displayed a clearance in series [8] of 25.7 mL/min/kg. Also, the Tmax in series [9] turned out to be 0.5 h. For the same compound, the bioavailability in [10] stood at 9%.
`Cn1c2c(c(=O)n1-c1ccccc1Cl)[C@H]1CC[C@]2(C)C1(C)C`: the Papp in series [1] was 9.9 ×10⁻⁶ cm/s. The IC50 is over 50 µM in series [12] and 0.039 µM in [3]. Moreover, the microsomal CLint at 1 µM in series [2] was determined as 197 µL/min/mg. The half-life in [4] was 4.9 h. The compound further came in with a concentration for an effect of 20% (IC20) in series [14] of over 30 µM. In addition, the highest level in [5] (Cmax) was 2840 ng/mL. The Vd in series [6] was 2.7 L/kg. Further, the solubility kinetic in [7] was over 625 µg/mL. Moreover, in series [8], the clearance worked out at 29.3 mL/min/kg. Besides, the time of peak concentration (Tmax) in series [9] worked out at 1 h. The bioavailability in series [10] was 29%.
